Entries after “also recorded” stand apart in the source; their conditions may differ. Where two headings read alike, the source gives them in different places.
What was measured:
JB6 P+ cells [1] = assay: Anchorage-independent growth assay in soft agar (EGF-induced JB6 P+ colony formation); assay type: cell-based, mouse; conditions: for IC50 / Emax / minimal effective concentration: Mus musculus; for IC50 / minimal effective concentration / effect on EGF-mediated transformation of JB6 P+ cells, words: 10 ng/mL EGF; for Emax: efficacy of inhibition of colony formation, reported if non-toxic; for minimal effective concentration: first concentration with expected statistical decrease, read-out: Soft Agar Assay Log IΔ2*PSD (converted)
Experimental: Ten ng/mL EGF was used to promote the anchorage-independent growth of JB6 cells. […] Plates were incubated at 37°C, 5% CO2 for 14 days. Colonies with greater than ten cells were counted manually under a microscope. […] Normalization allowed for comparison of data over a range of JB6 P+ cell cultures, passages, and experimental time for the shRNA studies, as well as control for variation in the EGF response, and importantly allowed for a direct comparison to all concentration-response experiments including the toxicity assays. […] All group sizes were determined via previous studies to provide statistically meaningful data. In the soft agar assays, key results were repeated with different JB6 P+ cells to confirm the results. Similarly, the shRNA studies were conducted with three independent concentration-response curves with different JB6 P+ cell stocks. […] For two sample comparisons a t-test was utilized, and when comparing multiple samples a One-, Two-, or Three-Factor ANOVA followed by Tukey-Kramer post hoc test was utilized depending on the data. For all tests, statistical difference was donated when p < 0.05. […] The I[…]*PSD is expressed in x-axis units (log [M]) as is an IC50 and it represents the first concentration where it is expected to observe a statistical decrease in the measured signal. […] Using the formula provided by GraphPad Prism or a straight line for the point-to-point graphs, the X-axis value for point Y was determined. The error is ascribed to this measurement via adding and subtracting the pooled standard deviation (PSD) to/from point Y generating point Y ± PSD. The two new points were then transformed to the X-axis units as was done for point Y creating an asymmetric error in sigmoidal plots. When the error was asymmetric, the larger error value was chosen to err on the conservative side. See S1 Fig for a pictoral explination of the method. The data is presented as I[…]*PSD ± error.

β2-AR [2] = tested on: β2-AR; set-up: method as in as printed in each cell (43-46, 48-54, 56-58); conditions: as described in the references; ref (43-46, 48-54, 56-58); cited from earlier work
JB6 P+ cells [3] = assay: SRB cytotoxicity assay; assay type: cell-based, mouse; conditions: for SRB Assay Log IΔ2*PSD: NT = no toxicity at any concentration tested; for Toxicity label: Toxic = no 10-fold difference between IΔ2*PSD from soft agar and SRB assays
Experimental: 96-well plates were seeded with 3x10^3 JB6 P+ cells per well and allowed to attach overnight. […] Cell viability was determined using Sulforhodamine B (SRB) assay from Sigma-Aldrich according to the manufacturer’s protocol. Cellular protein content was measured using a Bio-Tek μQuant plate reader with KCJunior software.
Concentration-response curves were normalized so that the EGF positive control on each 96-well plate was set to 100% and the control wells on each plate were set to 0%. Toxicity assays (SRB and MTS) were normalized so that the control on each plate represented 100% viability. Normalization allowed for comparison of data over a range of JB6 P+ cell cultures, passages, and experimental time for the shRNA studies, as well as control for variation in the EGF response, and importantly allowed for a direct comparison to all concentration-response experiments including the toxicity assays. […] All group sizes were determined via previous studies to provide statistically meaningful data. In the soft agar assays, key results were repeated with different JB6 P+ cells to confirm the results. Similarly, the shRNA studies were conducted with three independent concentration-response curves with different JB6 P+ cell stocks. […] For two sample comparisons a t-test was utilized, and when comparing multiple samples a One-, Two-, or Three-Factor ANOVA followed by Tukey-Kramer post hoc test was utilized depending on the data. For all tests, statistical difference was donated when p < 0.05.
The IΔ2*PSD is expressed in x-axis units (log [M]) as is an IC50 and it represents the first concentration where it is expected to observe a statistical decrease in the measured signal.
Using the formula provided by GraphPad Prism or a straight line for the point-to-point graphs, the X-axis value for point Y was determined. The error is ascribed to this measurement via adding and subtracting the pooled standard deviation (PSD) to/from point Y generating point Y ± PSD. The two new points were then transformed to the X-axis units as was done for point Y creating an asymmetric error in sigmoidal plots. When the error was asymmetric, the larger error value was chosen to err on the conservative side. See S1 Fig for a pictoral explination of the method. The data is presented as IΔ2*PSD ± error.

JB6 P+ cells [4] = conditions: cited from earlier work
[5] = tested on: hairless mice (UV-induced skin thickening); assay: Eight dose UV exposure, bi-folded epidermal thickness in hairless wild type and β2-AR knockout mice; assay type: in vivo, mouse; conditions: 5 μM in 200 μL acetone topically every other day, 200 mJ/cm^2 UV, eight irradiations
Experimental: The Western University of Health Sciences’ Institutional Animal Care and Use Committee (WesternU IACUC) approved all animal studies prior to initiating any experiments. The animal studies were carried out under WesternU IACUC recommendations and guidelines, which follow NIH guidelines. Mice had access to water and food ad libitum and housed on a 12-hour light/dark cycle with 35% humidity. Homozygous β1-AR and β2-AR null mice (Adrb1^tm1Bkk Adrb2^tm1Bkk/J Stock Number 003810) were purchased from Jackson Laboratory (Bar Harbor, ME); the double knockout mice were characterized previously. The double knockout mice were bred with C57BL/6J from Jackson Lab to generate a heterozygous F1 generation. The F1 generation was bred together to generate the F2 generation of which 1/16th of the offspring were a β2-AR knockout mouse. SKH-1 mice purchased from Charles River (Wilmington, MA) were bred with the β2-AR knockout mice generating a second heterozygous F1 generation. The F1 generation was bred together to generate the F2 generation of which 1/16th of the offspring were a hairless β2-AR knockout mouse. The F2 generation was backcrossed with a new batch of SKH-1 from Charles River to generate mice more efficiently. The mice used in this study are 75% SKH-1 and 25% mixed background. Following experimentation, and to cull the unused mice in a colony, mice were euthanized via exposure to 32% Isoflurane followed by cervical dislocation to ensure euthanization prior to disposal.
The first two weeks were pretreatment and the second two weeks were during the UV irradiation procedure, but drugs were applied the day after UV exposure to avoid sunscreen effects. All groups involved with UV were irradiated with 200 mJ/cm^2 dose of UV every other day for a total of eight irradiations. Bi-folded epidermal thickness was measured using a digital caliper before drug treatment on non-radiation days. Three skin thickness measurements were taken along the left, middle, and right dorsal epidermal layer, and the mean thickness was recorded for each mouse.

β2-AR [6] = conditions: given as negative log value; cited from earlier work
α1D-AR = conditions: read-out: Kd towards the α1D-AR; cited from earlier work
[7] = 336 h, 14 days, negative log value, read-out: Soft Agar Assay Log IC50 (converted)
[8] = soft agar, read-out: IC50, inhibition of EGF-mediated transformation

Row | Structure (SMILES) | IC50 (JB6 P+ cells [1]; [7]) [µM] | Pharmacological property at β2-AR (β2-AR [2]) | minimal effective concentration (JB6 P+ cells [1]; 336 h, 14 days) [µM] | SRB Assay Log IΔ2*PSD (JB6 P+ cells [3]; 72 hr) | Toxicity label (JB6 P+ cells [3]) | further results
1 | CC(CCc1ccccc1)NCC(O)c1ccc(O)c(C(N)=O)c1 (stereo not shown) [Labetalol] | 0.501 | Partial agonist for cAMP and full agonist for ERK [44, 45] |  |  |  | Emax (JB6 P+ cells [1]): 90.3 ± 8.48%
2 | COCCc1ccc(OCC(O)CNC(C)C)cc1 (stereo not shown) [Metoprolol] |  | Inverse agonist for cAMP [51] | 24.5 | -4.52 ± 0.20 log [M] | Toxic | 
3 | CC(C)NCC(O)COc1cccc2[nH]c3ccccc3c12 (stereo not shown) [Carazolol] |  |  | 7.41 | -5.00 ± 0.14 log [M] | Toxic | 
4 | CC(C)NCC(O)COc1ccc(CC(N)=O)cc1 (stereo not shown) [Atenolol] |  | Inverse agonist for cAMP [50] |  |  |  | Emax (JB6 P+ cells [1]): 47.9 ± 7.81%; Soft Agar Assay Log IC50 (JB6 P+ cells [4]; 10 ng/mL EGF, negative log value): -5.04 ± 0.27 [19] log [M]; effect on EGF-mediated transformation of JB6 P+ cells, words (JB6 P+ cells [4]; previous data): less potent and displayed partial efficacy; IC50 (JB6 P+ cells [4]; previously published atenolol, read-out: IC50, inhibition of EGF-mediated transformation): 9.19 µM
5 | CC(C)(C)NC[C@H](O)COc1nsnc1N1CCOCC1 [Timolol] | 3.31 | Inverse agonist for cAMP [48] |  | -4.22 ± 0.34 log [M] |  | IC50 (JB6 P+ cells [1]; [8]): 3.31 µM; Emax (JB6 P+ cells [1]): 100%
6 | CCCC(=O)Nc1ccc(OCC(O)CNC(C)C)c(C(C)=O)c1 (stereo not shown) [Acebutolol] |  | Partial agonist [56] | 49 | -3.39 ± 0.70 log [M] | Toxic | 
7 | CC(C)(C)NCC(O)COc1cccc2c1CC(O)C(O)C2 (stereo not shown) [Nadolol] |  | Inverse agonist for cAMP [44, 57] | 4.68 |  |  | effect on EGF-mediated transformation of JB6 P+ cells, words (JB6 P+ cells [1]; soft agar): do not prevent EGF-induced transformation of JB6 P+ cells
8 | CC(C)NCC(O)COc1cccc2ccccc12 (stereo not shown) [Propranolol] |  | Inverse agonist for cAMP that recruits ±-arr [29, 51] | 5.5 | -4.20 ± 0.11 log [M] |  | 
9 | CC(C)NCC(O)c1ccc2ccccc2c1 (stereo not shown) [Pronethalol] | 2.51 | Inverse agonist for cAMP [48] |  | -4.86 ± 0.23 log [M] |  | IC50 (JB6 P+ cells [1]; [8]): 2.53 µM; Emax (JB6 P+ cells [1]): 100%
10 | Oc1cccc2[nH]c3ccccc3c12 [4-OHC, 4-Hydroxycarbazole] |  |  |  |  |  | effect on UV-induced skin thickening, words ([5]; wild type mice): little effect in wild type mice; effect on UV-induced skin thickening, words ([5]; β2-AR knockout mice): no effect in knockout mice
11 | CC(C)(Cc1c[nH]c2ccccc12)NCC(O)COc1ccccc1C#N (stereo not shown) [Bucindolol] | 9.33 | Partial agonist for cAMP and full agonist for ERK [44, 52] | 1.91 | -4.84 ± 0.10 log [M] | Toxic | Log Kd at β2-AR (β2-AR [6]): -8.22 ± 0.1 [52]
12 | C=CCc1ccccc1OCC(O)CNC(C)C (stereo not shown) [Alprenolol] | 0.427 | Biased agonist/ activates ERK [43] |  | -4.95 ± 0.06 log [M] |  | Emax (JB6 P+ cells [1]): 93.8 ± 2.88%
13 | CC(C)NCC(O)c1ccc(O)c(O)c1 (stereo not shown) [Isoproterenol] |  | Full equipotent agonist [44, 58] | 24.5 | -4.77 ± 0.16 log [M] | Toxic | effect on EGF-mediated transformation of JB6 P+ cells, words (JB6 P+ cells [1]; soft agar): failed to increase EGF-mediated transformation of JB6 P+ cells
14 | Cc1ccc(OCC(O)C(C)NC(C)C)c2c1CCC2 (stereo not shown) [ICI 118,551] | 4.47 | Inverse agonist for cAMP that recruits ±-arr [29, 49] | 3.39 | -3.59 ± 0.50 log [M] | Toxic | 
15 | CC(C)(C)NCC(O)COc1cccc2[nH]c(=O)[nH]c12 (stereo not shown) [CGP 12177] |  | Partial agonist [53] | 7.59 | -4.46 ± 0.19 log [M] | Toxic | effect on EGF-mediated transformation of JB6 P+ cells, words (JB6 P+ cells [1]; soft agar): do not prevent EGF-induced transformation of JB6 P+ cells
16 | Cl.O=C1c2ccccc2CCC1CNCCc1ccc(O)cc1 (stereo not drawn) [HEAT HCl, 2-{[β-(4-Hydroxyphenyl)ethyl]aminomethyl}-1-tetralone hydrochloride] |  |  | 0.145 | -5.99 ± 0.03 log [M] |  | effect on EGF-mediated transformation of JB6 P+ cells, words (JB6 P+ cells [1]; soft agar): only inhibited colony formation at 1 and 10 μM; also recorded: do not prevent EGF-induced transformation of JB6 P+ cells; toxicity in SRB assay, words (JB6 P+ cells [3]; 72 hr): toxicity at 10 μM; Kd (α1D-AR): 0.000361 ± 8e-05 µM
17 | Cc1ccc(Cl)c(OCC(O)CNC(C)(C)C)c1 (stereo not shown) [Bupranolol] |  | Antagonist, not specified |  | -4.80 ± 0.05 log [M] | Toxic | 

Reference: publication PMC6527222 (PLoS ONE, 2019)
